Data: patent US6423689B1, “Peptidyl calcium channel blockers” (Warner-Lambert Company, priority 1997, dated 2002)

Assays:
[1] = target: T1, N-type Ca2+ channels in IMR-32 cells (Homo sapiens, UniProt Q00975); experiment: Inhibition of N-type calcium flux in IMR-32 cells (Indo-1 fluorescence, nitrendipine present); type: cell-based; settings: for inhibition at 1 µM / inhibition at 10 µM: IMR-32; for IC50: IMR-32 cells, 5 μM nitrendipine, K+ depolarization
T1 construct: host or cells: IMR-32 cells, differentiated with dibutyryl cAMP and bromodeoxyuridine
Summary of the method: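 Differentiated IMR-32 cells (7–13 days) were loaded with 5 μM Indo-1 AM, preincubated with compound for 10 min at 30° C, and depolarized with KCl/CaCl2 stimulation solution, with 5 μM nitrendipine blocking L-channels. Peak-minus-basal 400/490 nm emission ratio was plotted against drug concentration, and IC50 came from four-parameter logistic fits.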

[2] = target: T2, N-type Ca2+ channels in superior cervical ganglion (SCG) neurons (Rattus norvegicus, UniProt Q02294); experiment: Whole-cell voltage clamp, N-type Ca2+ current in SCG neurons; type: cell-based; settings: for IC50: read-out: Inhibition of N-type Ca2+ Current IC50
T2 construct: from tissue
Description: (§1) Electrophysiological techniques were used to measure the effects of experimental compounds on voltage-gated Ca^2+, Na^+ and K^+ channels. […] Sodium and potassium channel currents were measured from acutely dissociated SCG neurons.
(§2) Dissociation of the neurons from the ganglia was accomplished using a 30 to 45 minute treatment in 0.25% trypsin, similar to methods outlined in Higgins, et al. [see Higgins D., et al. “Tissue culture of mammalian autonomic neurons.” In Banker G. and Goslin K. (Eds), Culturing Nerve Cells, Cambridge, Mass., MIT Press (1991)].
(§3) Ca^2+, Na^+ and K^+ channel currents in SCG neurons were measured using conventional single electrode whole-cell voltage-clamp techniques, outlined in Hamill, et al., (see Hamill O.P., et al. “Improved patch-clamp techniques for high resolution current recordings from cells and cell-free membrane patches”. Pflugers Arch. 1981;391:85-100) For Ca^2+ channel experiments, the external bathing solution contained tetraethylammonium chloride (100 mM), choline chloride (52 mM), NaCl (15 mM), HEPES (10 mM), glucose (5.6 mM), CaCl2 (2 mM), and MgCl2 (0.8 mM) pH 7.35 with KOH; with the internal pipette solution containing cesium methane sulfonate (140 mM), EGTA (10 mM), and HEPES (10 mM), supplemented with 5 mM Mg^2+ -ATP on the day of the experiment, pH 7.4 with CsOH. For Na^+ and K^+ channel experiments, the external bathing solution contained NaCl (150 mM), KCl (5 mM), MgCl2 (1.1 mM), CaCl2 (2.6 mM), Na-HEPES (10 mM), and glucose (10 mM), pH 7.4; with the internal pipette solution containing KCl (80 mM), K-gluconate (50 mM), HEPES (10 mM), and EGTA (10 mM), pH 7.4 with KOH. Experimental compounds were diluted into the external solution and applied to the soma of cells by local perfusion from large diameter (20-50 μm) glass micropipettes or from a U-tube applicator.
After obtaining a whole-cell recording, Ca^2+ channels were elicited by stepping to test potentials between −40 and +20 mV for 120 msec from the holding potential of −90 mV to determine if the amplitude of the current and clamp control were adequate for evaluation of drug effects. Ca^2+ channel currents were evoked by stepping from a holding potentials between −65 mV and −−55 mV to a test potential of +20 mV for 150 msec every 40 seconds. The amplitude of the Ca^2+ channel currents were compared before and during drug application and drug effects expressed as percent inhibition of the amplitude of control currents.

[3] = tested on: K+ channels in superior cervical ganglion (SCG) neurons; experiment: Whole-cell voltage clamp, K+ current in SCG neurons; type: cell-based, rat; settings: for IC50: read-out: Inhibition of K+ Current IC50
Description: as §1, §2, §3
(§4) For Na^+ and K^+ channel currents, following the determination of the I/V relationship for each cell in control solution, currents were evoked from a holding potential between −65 and −55 mV by stepping every 10 sec to a test potential of either 0 mV for Na^+ or +50 mV for K^+ current for a duration of 35 msec. Peak inward current was measured for Na^+ and sustained current for K^+ channel currents. […] Test compounds were applied until steady-state block was achieved. Data were expressed as percent inhibition of control amplitudes for Na^+ and K^+ channel currents.

[4] = tested on: Na+ channels in superior cervical ganglion (SCG) neurons; experiment: Whole-cell voltage clamp, Na+ current in SCG neurons; type: cell-based, rat; settings: for IC50: read-out: Inhibition of Na+ Current IC50
Description: as §1, §2, §3, §4

T1 sequence (Q00975 whole entry): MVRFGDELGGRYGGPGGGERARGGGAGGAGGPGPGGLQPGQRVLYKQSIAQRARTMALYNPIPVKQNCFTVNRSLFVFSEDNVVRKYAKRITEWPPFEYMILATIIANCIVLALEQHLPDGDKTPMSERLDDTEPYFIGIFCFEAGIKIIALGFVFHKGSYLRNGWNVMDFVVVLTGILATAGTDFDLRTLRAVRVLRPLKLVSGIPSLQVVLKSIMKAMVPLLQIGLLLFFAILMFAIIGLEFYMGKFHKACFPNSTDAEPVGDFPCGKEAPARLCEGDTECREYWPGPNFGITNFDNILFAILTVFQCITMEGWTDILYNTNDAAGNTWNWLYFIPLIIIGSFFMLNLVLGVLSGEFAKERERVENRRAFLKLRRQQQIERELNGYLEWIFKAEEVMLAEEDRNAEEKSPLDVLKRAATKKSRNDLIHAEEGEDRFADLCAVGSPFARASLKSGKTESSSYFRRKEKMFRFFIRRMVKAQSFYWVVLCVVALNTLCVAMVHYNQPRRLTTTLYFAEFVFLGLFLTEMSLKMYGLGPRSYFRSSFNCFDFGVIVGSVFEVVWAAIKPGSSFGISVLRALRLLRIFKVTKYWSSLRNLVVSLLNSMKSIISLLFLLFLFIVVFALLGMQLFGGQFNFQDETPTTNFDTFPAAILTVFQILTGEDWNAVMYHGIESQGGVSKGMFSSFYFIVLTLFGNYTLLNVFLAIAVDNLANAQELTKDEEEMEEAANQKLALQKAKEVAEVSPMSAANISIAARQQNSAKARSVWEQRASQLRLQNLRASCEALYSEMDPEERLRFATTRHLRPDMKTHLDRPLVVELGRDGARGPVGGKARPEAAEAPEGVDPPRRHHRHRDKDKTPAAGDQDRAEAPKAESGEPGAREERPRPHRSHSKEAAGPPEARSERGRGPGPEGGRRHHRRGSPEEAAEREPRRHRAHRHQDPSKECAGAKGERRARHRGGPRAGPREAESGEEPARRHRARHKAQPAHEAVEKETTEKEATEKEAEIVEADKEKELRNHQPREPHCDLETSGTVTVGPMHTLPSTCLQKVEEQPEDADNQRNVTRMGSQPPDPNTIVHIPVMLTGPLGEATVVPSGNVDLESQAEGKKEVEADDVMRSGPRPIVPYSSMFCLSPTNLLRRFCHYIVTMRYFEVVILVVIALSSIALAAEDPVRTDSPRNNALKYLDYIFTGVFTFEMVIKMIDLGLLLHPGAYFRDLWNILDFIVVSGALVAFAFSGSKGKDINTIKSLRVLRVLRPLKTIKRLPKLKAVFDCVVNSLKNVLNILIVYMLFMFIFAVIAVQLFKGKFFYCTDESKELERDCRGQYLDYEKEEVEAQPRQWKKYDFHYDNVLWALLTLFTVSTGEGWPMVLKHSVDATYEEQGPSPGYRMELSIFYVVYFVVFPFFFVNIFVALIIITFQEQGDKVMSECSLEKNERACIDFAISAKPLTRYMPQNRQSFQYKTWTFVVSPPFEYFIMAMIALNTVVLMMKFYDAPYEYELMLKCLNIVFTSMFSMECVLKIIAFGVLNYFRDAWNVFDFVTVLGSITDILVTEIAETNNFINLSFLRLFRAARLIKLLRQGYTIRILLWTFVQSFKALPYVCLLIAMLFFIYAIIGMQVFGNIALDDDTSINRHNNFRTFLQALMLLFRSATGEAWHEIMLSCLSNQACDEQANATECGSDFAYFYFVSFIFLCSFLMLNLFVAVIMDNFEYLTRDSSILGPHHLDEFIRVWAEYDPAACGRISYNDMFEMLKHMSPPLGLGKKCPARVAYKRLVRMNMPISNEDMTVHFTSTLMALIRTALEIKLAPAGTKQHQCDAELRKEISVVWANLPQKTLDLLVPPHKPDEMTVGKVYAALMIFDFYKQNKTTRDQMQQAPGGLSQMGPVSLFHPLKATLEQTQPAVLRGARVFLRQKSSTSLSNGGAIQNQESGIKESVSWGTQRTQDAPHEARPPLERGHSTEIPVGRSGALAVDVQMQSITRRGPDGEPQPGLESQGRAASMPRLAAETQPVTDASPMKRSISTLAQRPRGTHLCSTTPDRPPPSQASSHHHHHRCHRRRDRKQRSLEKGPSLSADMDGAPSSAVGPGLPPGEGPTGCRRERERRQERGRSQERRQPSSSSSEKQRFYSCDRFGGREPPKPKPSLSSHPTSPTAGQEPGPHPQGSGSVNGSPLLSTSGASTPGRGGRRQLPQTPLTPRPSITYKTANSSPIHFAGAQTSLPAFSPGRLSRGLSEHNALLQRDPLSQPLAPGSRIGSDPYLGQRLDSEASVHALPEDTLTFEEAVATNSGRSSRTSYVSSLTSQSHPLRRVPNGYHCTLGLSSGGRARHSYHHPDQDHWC
T1 sequence (P54289 25-956 partner limits assumed): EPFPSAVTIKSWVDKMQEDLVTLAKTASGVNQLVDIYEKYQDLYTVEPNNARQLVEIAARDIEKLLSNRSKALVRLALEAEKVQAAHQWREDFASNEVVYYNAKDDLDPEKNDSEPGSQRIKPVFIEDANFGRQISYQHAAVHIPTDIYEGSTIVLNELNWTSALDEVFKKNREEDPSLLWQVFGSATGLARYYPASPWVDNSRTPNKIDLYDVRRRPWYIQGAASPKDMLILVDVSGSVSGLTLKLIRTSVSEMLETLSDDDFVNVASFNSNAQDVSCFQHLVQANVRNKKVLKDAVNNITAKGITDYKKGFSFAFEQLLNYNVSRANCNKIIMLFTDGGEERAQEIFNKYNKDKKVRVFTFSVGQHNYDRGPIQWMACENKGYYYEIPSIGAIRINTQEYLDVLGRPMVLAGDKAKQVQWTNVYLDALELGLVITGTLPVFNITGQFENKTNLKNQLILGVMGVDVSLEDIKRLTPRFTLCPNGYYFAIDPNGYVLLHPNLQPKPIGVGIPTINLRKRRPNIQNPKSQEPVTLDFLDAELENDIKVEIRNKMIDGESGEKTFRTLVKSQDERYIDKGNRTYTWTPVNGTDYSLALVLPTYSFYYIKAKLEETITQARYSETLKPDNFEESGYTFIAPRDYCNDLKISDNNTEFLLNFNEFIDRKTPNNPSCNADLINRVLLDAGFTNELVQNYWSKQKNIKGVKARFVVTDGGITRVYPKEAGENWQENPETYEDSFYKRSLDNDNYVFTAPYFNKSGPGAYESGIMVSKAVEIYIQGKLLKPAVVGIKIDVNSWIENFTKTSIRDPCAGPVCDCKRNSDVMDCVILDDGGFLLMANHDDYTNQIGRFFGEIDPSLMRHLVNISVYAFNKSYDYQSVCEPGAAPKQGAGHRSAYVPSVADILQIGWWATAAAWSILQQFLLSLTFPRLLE
T1 sequence (P54289 957-1103 partner limits assumed): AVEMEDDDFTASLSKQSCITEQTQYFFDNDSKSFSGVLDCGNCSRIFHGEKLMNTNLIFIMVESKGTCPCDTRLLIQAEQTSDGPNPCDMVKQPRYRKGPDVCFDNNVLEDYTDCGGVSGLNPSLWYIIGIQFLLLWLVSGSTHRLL
T1 sequence (P54284 whole entry partner): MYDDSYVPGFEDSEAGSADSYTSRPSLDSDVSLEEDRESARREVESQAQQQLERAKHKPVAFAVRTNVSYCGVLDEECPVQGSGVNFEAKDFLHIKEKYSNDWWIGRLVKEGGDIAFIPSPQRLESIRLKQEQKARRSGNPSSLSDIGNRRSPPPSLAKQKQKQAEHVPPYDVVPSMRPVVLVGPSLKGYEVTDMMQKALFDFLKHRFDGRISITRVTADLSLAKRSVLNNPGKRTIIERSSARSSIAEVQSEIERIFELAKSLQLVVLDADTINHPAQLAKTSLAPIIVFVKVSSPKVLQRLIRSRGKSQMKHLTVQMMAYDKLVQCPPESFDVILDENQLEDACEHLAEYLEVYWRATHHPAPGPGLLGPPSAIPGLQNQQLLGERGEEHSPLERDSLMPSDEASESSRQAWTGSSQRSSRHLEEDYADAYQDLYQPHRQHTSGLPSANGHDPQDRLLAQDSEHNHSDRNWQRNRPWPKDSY

Compound	inhibition at 1 µM [1]	inhibition at 10 µM [1]	IC50 [1]	inhibition at 10 µM [2]	IC50 [2]	IC50 [3]	IC50 [4]	Inhibition of K+ Current, % Inhibition at 10 μM [3]	Inhibition of Na+ Current, % Inhibition at 10 μM [4]
CC(C)C[C@@H](NC(=O)N1CCCCCC1)C(=O)N[C@@H](Cc1ccc(OCc2ccccc2)cc1)C(=O)OC(C)(C)C [Example 3, 2(S)-{2(R)-[(Azepane-1-carbonyl)-amino]-4-methyl-pentanoylamino}-3-(4-benzyloxy-phenyl)-propionic acid tert-butyl ester]	53%	90%	990 nM	69%				39%	12%
CC(C)C[C@H](NC(=O)N1CCCCCC1)C(=O)N[C@@H](Cc1ccc(OCc2cccc(NC(=O)OC(C)(C)C)c2)cc1)C(=O)OC(C)(C)C [Example 28, [S-(R*,R*)]-2-{2-[(Azepane-1-carbonyl)-amino]-4-methyl-pentanoylamino}-3-[4-(3-tert-butoxycarbonylamino-benzyloxy)-phenyl]-propionic acid tert-butyl ester]	42%	65%	1800 nM	40%				11%	5%
CC(C)C[C@H](NC(=O)N1CCCCCC1)C(=O)N[C@@H](Cc1ccc(OCc2cccnc2)cc1)C(=O)OC(C)(C)C [Example 31, [S-(R*,R*)]-2-{2-[(Azepane-1-carbonyl)-amino]-4-methyl-pentanoylamino}-3-[4-(pyridin-3-ylmethoxy)-phenyl]-propionic acid tert-butyl ester]	28%	85%	1850 nM	68%	3340 nM	12400 nM	185000 nM	41%	21%
O=C(NCCN1CCCCC1)[C@H](Cc1ccc(OCc2ccccc2)cc1)NC(=O)[C@H](CC1CCCCC1)NC(=O)N1CCCCCC1 [Example 162, [S-(R*,R*)]-Azepane-1-carboxylic acid {1-[2-(4-benzyloxy-phenyl)-1-(2-piperidin-1-ylethylcarbamoyl)-ethylcarbamoyl]-2-cyclohexyl-ethyl}-amide]			960 nM	47%				40%	32%
CC(C)C[C@H](NC(=O)N1CCCCCC1)C(=O)N[C@@H](Cc1ccc(OCc2ccccc2)cc1)C(=O)NCCO [Example 165, [S-(R*,R*)]-Azepane-1-carboxylic acid {1-[2-(4-benzyloxy-phenyl)-1-(2-hydroxy-ethylcarbamoyl)-ethylcarbamoyl]-3-methyl-butyl}-amide]			3600 nM	84%	2330 nM		6900 nM	86%	46%
CC(C)C[C@H](NC(=O)N1CCOCC1)C(=O)N[C@@H](Cc1ccc(OCc2ccccc2)cc1)C(=O)NCCN1CCCCC1 [Example 177, [S-(R*,R*)]-Morpholine-4-carboxylic acid {1-[2-(4-benzyloxy-phenyl)-1-(2-piperidin-1-ylethylcarbamoyl)-ethylcarbamoyl]-3-methyl-butyl}-amide]			2900 nM	87%	2030 nM			68%	31%
CC(C)C[C@H](NC(=O)N1CCCCCC1)C(=O)N[C@@H](Cc1ccc(OCc2ccccc2)cc1)C(=O)NCCCNC1CCCCC1 [Example 184, [S-(R*,R*)]-Azepane-1-carboxylic acid {1-[2-(4-benzyloxy-phenyl)-1-(3-cyclohexylamino-propylcarbamoyl)-ethylcarbamoyl]-3-methyl-butyl}-amide]			2600 nM	54%	1190 nM	490 nM	4850 nM	89%	82%

Molecules with a lower IC50 [1], results first:

inhibition at 1 µM [1]	inhibition at 10 µM [1]	IC50 [1]	inhibition at 10 µM [2]	IC50 [2]	IC50 [3]	IC50 [4]	Compound	Inhibition of K+ Current, % Inhibition at 10 μM [3]	Inhibition of Na+ Current, % Inhibition at 10 μM [4]
51%	90%	900 nM	51%				CC(C)C[C@@H](NC(=O)N1CCCCCC1)C(=O)N[C@H](Cc1ccc(OCc2ccccc2)cc1)C(=O)OC(C)(C)C [Example 4, [R-(R*,R*)]-2-{2-(Azepane-1-carbonyl)-amino]-4-methyl-pentanoylamino}-3-(4-benzyloxy-phenyl)-propionic acid tert-butyl ester]	38%	13%
		830 nM	28%				CC(C)(C)C[C@H](NC(=O)N1CCCCCC1)C(=O)N[C@@H](Cc1ccc(OCc2ccccc2)cc1)C(=O)NCCN1CCCCC1 [Example 159, [S-(R*,R*)]-Azepane-1-carboxylic acid {1-[2-(4-benzyloxy-phenyl)-1-(2-piperidin-1-ylethylcarbamoyl)-ethylcarbamoyl]-3,3-dimethyl-butyl}-amide]	46%	30%
		720 nM	61%	4370 nM	5700 nM	42300 nM	CC(C)CC(NC(=O)N1CCCCCC1)C(=O)NC(Cc1ccc(OCc2ccccc2)cc1)C(=O)NC(C)C(C)C (centres unmarked) [Example 191, Azepane-1-carboxylic acid {1-[2-(4-benzyloxy-phenyl)-1-(1,2-dimethyl-propylcarbamoyl)-ethylcarbamoyl]-3-methyl-butyl}-amide]	64%	38%
56%	83%	630 nM	38%				CC(C)C[C@H](NC(=O)N1CCCCCC1)C(=O)N[C@@H](Cc1ccc(OCC2CCCCC2)cc1)C(=O)OC(C)(C)C [Example 30, [S-(R*,R*)]-2-{2-[(Azepane-1-carbonyl)-amino]-4-methyl-pentanoylamino}-3-(4-cyclohexylmethoxy-phenyl)-propionic acid tert-butyl ester]	8%	19%
61%	88%	530 nM	47%				CC(C)CC(NC(=O)N1CCCCCC1)C(=O)NC(C)(Cc1ccc(OCc2ccccc2)cc1)C(=O)OC(C)(C)C (stereo not drawn) [Example 11A, [S-(R*,R*)]-2-{2-[(Azepane-1-carbonyl)-amino]-4-methyl-pentanoylamino}-3-(4-benzyloxy-phenyl)-2-methyl-propionic acid tert-butyl ester]	47%	11%
58%		530 nM	4%				CC(C)C[C@H](NC(=O)N1CCCCCC1)C(=O)N[C@@H](Cc1ccc(OCc2ccccc2)cc1)C(=O)N1CCCCC1 [Example 167, [S-(R*,R*)]-Azepane-1-carboxylic acid {1-[1-(4-benzyloxy-benzyl)-2-oxo-2-piperidin-1-ylethylcarbamoyl]-3-methyl-butyl}-amide]	8%	−2%
